Reference: patent publication US20250206773A1, “FORMS AND COMPOSITIONS OF SODIUM CHENODEOXYCHOLATE” (Syntis Bio, Inc., priority 2022, published 2025)
Where two headings read alike, the source gives them in different places.

Key:
[1] = format: physicochemical
Procedure: HPLC analysis was carried out on an Agilent 1260 Infinity chromatograph, using a Hichrom C18 column 100×4.6 mm, 3.5 m, at 40° C. Method details were as follows: [table] Around 10 mg of NaCDC Form B was weighed into 1.6 mL HPLC vials. 3-5 mm PTFE-covered cylindrical magnetic stirring bars were added to the vials. […] The vials were visually inspected before each addition to check for the dissolution of the starting material, and the solvent addition was stopped when a complete dissolution was observed. The clear solutions were left to rest at RT. […] The experiments were held at each temperature for 1 h, and then they were visually inspected to see if dissolution occurred. At the end of the experimental time, the magnetic stirring bars were removed, and all slurries or solutions were dried at different temperatures depending on the boiling points of each solvent used (i.e., at 30° C., 20-21 mbar or 50° C., 21 mbar, for 21 hours; with the exception of experiments SASO7, SAS33, SAS34, SAS35, SAS36 and SAS45 which were dried at 50° C. for 43 hours). All the resulting solids were analyzed by XRPD. For several selected experiments, HPLC analysis was performed. The solids that gave new XRPD patterns were investigated by TGA/DSC. [table]

[2] = Polymorph screening: slow evaporation; format: physicochemical
Procedure: Five stock solutions (with MeOH, water, 2,2,2-trifluoroethanol, MeOH:EtOAc (1:1 v/v) and MeOH:acetone (1:1 v/v)) were prepared with NaCDC Form B at RT. The final concentration of each solution was near that obtained from the Solubility Studies described in Example 8. Around 19-23 mg of NaCDC Form B was weighed into 1.6 mL HPLC vials (or 8 mL flask in the case of stock solutions with MeOH:EtOAc and MeOH:acetone) and dissolved in appropriate solvents at RT. In the case of the stock solution with water, around 40 mg NaCDC Form B was used. The experiments were kept at RT for 1 h with stirring (500 rpm) and then the solutions were filtered with 0.45 μm PTFE filters. During filtration of the stock solution with water, a foaming phenomenon was observed, and therefore, filtration was performed slowly and in several steps. The filtered solutions were then evaporated slowly under atmospheric pressure at 25° C. (experiments EV01-05) or at 50° C. (experiments EV06-09). After complete evaporation of the solvent, the solids were recovered and analyzed by XRPD. Depending on the results obtained from the XRPD analysis and also material availability, some experiments were analyzed by HPLC and TG/DSC.

[3] = EV07, 2,2,2-Trifluoroethanol (TFE) 50.88 mg/mL, solids after 4 days at 50° C. and atm. pres.

C[C@H](CCC(=O)[O-])[C@H]1CC[C@H]2[C@@H]3[C@H](O)C[C@@H]4C[C@H](O)CC[C@]4(C)[C@H]3CC[C@]12C.[Na+] [Form B, sodium chenodeoxycholate]
HPLC (%) 212 nm ([1]; SAS01, Water (H2O), solid after evaporation A (30° C., 20-21 mbar, 21 hours)): 84.9% | HPLC (%) 212 nm ([1]; SAS03, Ethanol (EtOH), solid after evaporation A (30° C., 21 hours)): 71.5% | HPLC (%) 212 nm ([1]; SAS04, 2-Propanol (2-PrOH), solid after evaporation A (30° C., 21 hours)): 96.6% | HPLC (%) 212 nm ([1]; SAS05, 2-Methyl-1-propanol (Isobutanol), solid after evaporation A (30° C., 21 hours)): 96.5% | HPLC (%) 212 nm ([1]; SAS06, 2-Butanol, solid after evaporation A (30° C., 21 hours)): 97.5% | HPLC (%) 212 nm ([1]; SAS07, 2-Ethoxyethanol, solid after evaporation C (50° C., 43 hours)): 38.0% | HPLC (%) 212 nm ([1]; SAS08, 2,2,2-Trifluoroethanol (TFE), solid after evaporation A (30° C., 21 hours)): 91.3% | HPLC (%) 212 nm ([1]; SAS09, 3-Methyl-1-butanol (Isoamyl alcohol), solid after evaporation B (50° C., 21 hours)): 48.1% | HPLC (%) 212 nm ([1]; SAS20, n-Butyl acetate, solid after evaporation B (50° C., 21 hours)): 96.3% | HPLC (%) 212 nm ([1]; SAS24, Diisopropyl ether, solid after evaporation A (30° C., 21 hours)): 94.4% | HPLC (%) 212 nm ([1]; SAS33, Benzonitrile, solid after evaporation C (50° C., 43 hours)): 68.0% | HPLC (%) 212 nm ([1]; SAS34, N,N-Dimethyl-acetamide, solid after evaporation C (50° C., 43 hours)): 1.2% | HPLC (%) 212 nm ([1]; SAS35, N-Methyl-pyrrolidone, gel after evaporation C (50° C., 43 hours)): 1.5% | HPLC (%) 212 nm ([1]; SAS36, Dimethyl sulfoxide (DMSO), solid after evaporation C (50° C., 43 hours)): 32.4% | HPLC (%) 212 nm ([1]; SAS39, EtOH:MeCN (1:1 v/v), solid after evaporation A (30° C., 21 hours)): 80.1% | HPLC (%) 212 nm ([1]; SAS40, H2O:THF (1:1 v/v), solid after evaporation A (30° C., 21 hours)): 77.5% | HPLC (%) 212 nm ([1]; SAS41, H2O:EtOH (1:1 v/v), solid after evaporation A (30° C., 21 hours)): 90.7% | HPLC (%) 212 nm ([1]; SAS42, H2O:2-PrOH (1:1 v/v), solid after evaporation A (30° C., 21 hours)): 92.0% | HPLC (%) 212 nm ([1]; SAS43, H2O:MeCN (1:1 v/v), solid after evaporation A (30° C., 21 hours)): 91.1% | HPLC (%) 212 nm ([1]; SAS44, H2O:Acetone (1:1 v/v), solid after evaporation A (30° C., 21 hours)): 93.7% | HPLC (%) 212 nm ([1]; SAS45, H2O:DMSO (1:1 v/v), solid after evaporation C (50° C., 43 hours)): 30.2% | HPLC (%) 212 nm ([1]; SAS46, MeOH:EtOAc (1:1 v/v), solid after evaporation A (30° C., 21 hours)): 89.0% | HPLC (%) 212 nm ([1]; SAS47, MeOH:Acetone (1:1 v/v), solid after evaporation A (30° C., 21 hours)): 91.0% | HPLC (%) 212 nm ([1]; SAS48, EtOH:n-Heptane (1:1 v/v), solid after evaporation A (30° C., 21 hours)): 90.1% | HPLC purity of recovered solids (dropped from 99.2%) ([1]; experiments with 2-ethoxyethanol, 3-methyl-1-butanol, benzonitrile, DMAc, NMP, DMSO, H2O:DMSO (1:1 v/v)): 1.2-68.0% | HPLC purity (%) at 212 nm ([2]; EV01, Methanol (MeOH) 100.80 mg/mL, solids after 4 days at 25-30° C. and atm. pres.): 91.70% | HPLC purity (%) at 212 nm ([2]; EV02, Water (H2O) 204.39 mg/mL, solids after 5 days at 25-30° C. and atm. pres.): 93.71% | HPLC purity (%) at 212 nm ([2]; EV03, 2,2,2-Trifluoroethanol (TFE) 50.88 mg/mL, solids after 7 days at 25-30° C. and atm. pres.): 88.27% | HPLC purity (%) at 212 nm ([2]; EV04, MeOH:EtOAc (1:1 v/v) 20.49 mg/mL, solids after 4 days at 25-30° C. and atm. pres.): 86.46% | HPLC purity (%) at 212 nm ([2]; EV05, MeOH:Acetone (1:1 v/v) 20.19 mg/mL, solids after 4 days at 25-30° C. and atm. pres.): 90.22% | HPLC purity (%) at 212 nm ([2]; EV06, Water (H2O) 204.39 mg/mL, solids after several hours (overnight) at 50° C. and atm. pres.): 93.24% | HPLC purity (%) at 212 nm [2, 3]: 91.69% | XRPD [2, 3]: S4 + SM, P.O. | HPLC purity (%) at 212 nm ([2]; EV08, MeOH:EtOAc (1:1 v/v) 20.49 mg/mL, solids after several hours (overnight) at 50° C. and atm. pres.): 71.43% | HPLC purity (%) at 212 nm ([2]; EV09, MeOH:Acetone (1:1 v/v) 20.19 mg/mL, solids after 4 days at 50° C. and atm. pres.): 87.00%
